Columns and labels:
[1] = biological target: T1, Matrilysin (Homo sapiens, UniProt P09237); test: Inhibition of human recombinant MMP7
T1 sequence (P09237 whole entry): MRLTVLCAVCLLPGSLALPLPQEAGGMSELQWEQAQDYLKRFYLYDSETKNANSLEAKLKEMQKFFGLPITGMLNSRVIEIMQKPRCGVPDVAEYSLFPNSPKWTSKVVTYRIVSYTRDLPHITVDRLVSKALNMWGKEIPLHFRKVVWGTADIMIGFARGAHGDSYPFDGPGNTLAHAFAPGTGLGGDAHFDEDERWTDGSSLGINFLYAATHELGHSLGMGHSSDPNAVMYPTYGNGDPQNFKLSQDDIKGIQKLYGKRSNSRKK

[2] = biological target: 72 kDa type IV collagenase (Homo sapiens, UniProt P08253); test: Inhibition of human recombinant MMP2
Chain of 72 kDa type IV collagenase (P08253 whole entry): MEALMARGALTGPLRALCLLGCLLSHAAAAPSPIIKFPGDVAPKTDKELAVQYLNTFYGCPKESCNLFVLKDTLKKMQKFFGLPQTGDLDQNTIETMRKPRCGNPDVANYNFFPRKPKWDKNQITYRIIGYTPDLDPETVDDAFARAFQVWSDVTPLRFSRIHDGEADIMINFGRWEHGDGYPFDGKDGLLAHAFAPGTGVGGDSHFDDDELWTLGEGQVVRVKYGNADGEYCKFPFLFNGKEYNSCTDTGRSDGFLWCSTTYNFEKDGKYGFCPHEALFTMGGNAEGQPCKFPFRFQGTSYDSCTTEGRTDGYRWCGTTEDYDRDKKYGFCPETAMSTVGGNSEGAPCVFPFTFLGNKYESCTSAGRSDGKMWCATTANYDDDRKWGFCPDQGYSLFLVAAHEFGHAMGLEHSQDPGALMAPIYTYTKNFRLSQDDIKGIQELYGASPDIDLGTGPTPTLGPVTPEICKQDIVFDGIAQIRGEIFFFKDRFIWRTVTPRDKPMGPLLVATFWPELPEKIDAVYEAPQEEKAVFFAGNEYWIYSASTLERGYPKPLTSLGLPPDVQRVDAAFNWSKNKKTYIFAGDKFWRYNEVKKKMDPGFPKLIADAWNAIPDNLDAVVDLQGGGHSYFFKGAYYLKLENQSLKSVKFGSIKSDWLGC

[3] = biological target: T2, Interstitial collagenase (Homo sapiens, UniProt P03956); test: Inhibition of human recombinant MMP1
T2 sequence (P03956 whole entry): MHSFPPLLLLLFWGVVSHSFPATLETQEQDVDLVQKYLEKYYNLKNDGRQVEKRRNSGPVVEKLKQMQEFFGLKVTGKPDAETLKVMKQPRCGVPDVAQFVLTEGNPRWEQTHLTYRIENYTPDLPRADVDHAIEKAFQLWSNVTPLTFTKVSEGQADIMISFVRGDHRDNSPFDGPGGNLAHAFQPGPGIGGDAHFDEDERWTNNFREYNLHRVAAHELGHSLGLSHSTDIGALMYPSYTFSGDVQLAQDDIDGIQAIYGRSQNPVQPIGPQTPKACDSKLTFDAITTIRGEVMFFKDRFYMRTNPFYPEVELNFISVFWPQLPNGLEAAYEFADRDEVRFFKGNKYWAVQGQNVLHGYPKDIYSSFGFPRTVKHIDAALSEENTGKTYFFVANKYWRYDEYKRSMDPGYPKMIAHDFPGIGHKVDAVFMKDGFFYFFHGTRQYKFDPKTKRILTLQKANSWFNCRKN

[4] = biological target: Macrophage metalloelastase (Homo sapiens, UniProt P39900); test: Inhibition of human recombinant MMP12
Chain of Macrophage metalloelastase (P39900 whole entry): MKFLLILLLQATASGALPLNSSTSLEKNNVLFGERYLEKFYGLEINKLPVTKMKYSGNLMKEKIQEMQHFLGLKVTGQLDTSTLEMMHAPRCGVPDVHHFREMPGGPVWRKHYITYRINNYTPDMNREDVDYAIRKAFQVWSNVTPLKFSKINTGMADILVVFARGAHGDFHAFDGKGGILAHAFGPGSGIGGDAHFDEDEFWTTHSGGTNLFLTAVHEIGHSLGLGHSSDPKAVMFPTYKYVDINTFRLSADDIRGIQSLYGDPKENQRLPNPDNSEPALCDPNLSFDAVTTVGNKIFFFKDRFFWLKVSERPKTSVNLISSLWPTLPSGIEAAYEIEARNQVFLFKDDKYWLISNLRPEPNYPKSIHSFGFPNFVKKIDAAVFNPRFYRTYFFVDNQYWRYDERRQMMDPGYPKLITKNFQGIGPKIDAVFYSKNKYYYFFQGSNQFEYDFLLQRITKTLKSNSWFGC

[5] = biological target: Collagenase 3 (Homo sapiens, UniProt P45452); test: Inhibition of human recombinant MMP13
[6] = biological target: Matrix metalloproteinase-9 (Homo sapiens, UniProt P14780); test: Inhibition of human recombinant MMP9
Chain of Matrix metalloproteinase-9 (P14780 whole entry): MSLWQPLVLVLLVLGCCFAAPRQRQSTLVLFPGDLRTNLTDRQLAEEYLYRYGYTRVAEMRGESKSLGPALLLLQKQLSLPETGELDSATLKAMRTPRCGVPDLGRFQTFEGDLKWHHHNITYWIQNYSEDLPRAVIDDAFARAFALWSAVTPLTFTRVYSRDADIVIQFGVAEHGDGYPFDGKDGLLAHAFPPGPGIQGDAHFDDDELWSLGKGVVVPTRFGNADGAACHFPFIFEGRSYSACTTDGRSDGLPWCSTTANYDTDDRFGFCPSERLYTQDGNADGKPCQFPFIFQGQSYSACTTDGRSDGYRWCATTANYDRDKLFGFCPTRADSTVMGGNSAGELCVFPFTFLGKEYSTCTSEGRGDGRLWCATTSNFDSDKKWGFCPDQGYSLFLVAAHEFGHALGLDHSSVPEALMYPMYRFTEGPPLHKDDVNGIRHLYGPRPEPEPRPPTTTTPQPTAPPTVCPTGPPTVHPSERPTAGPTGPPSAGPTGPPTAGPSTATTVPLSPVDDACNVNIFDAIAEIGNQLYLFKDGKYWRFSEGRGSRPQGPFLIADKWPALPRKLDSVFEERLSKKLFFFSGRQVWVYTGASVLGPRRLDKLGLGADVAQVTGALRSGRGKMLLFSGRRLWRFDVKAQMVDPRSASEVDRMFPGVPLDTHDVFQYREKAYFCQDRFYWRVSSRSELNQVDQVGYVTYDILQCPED

[7] = biological target: Stromelysin-1 (Homo sapiens, UniProt P08254); test: Inhibition of human recombinant MMP3
Chain of Stromelysin-1 (P08254 whole entry): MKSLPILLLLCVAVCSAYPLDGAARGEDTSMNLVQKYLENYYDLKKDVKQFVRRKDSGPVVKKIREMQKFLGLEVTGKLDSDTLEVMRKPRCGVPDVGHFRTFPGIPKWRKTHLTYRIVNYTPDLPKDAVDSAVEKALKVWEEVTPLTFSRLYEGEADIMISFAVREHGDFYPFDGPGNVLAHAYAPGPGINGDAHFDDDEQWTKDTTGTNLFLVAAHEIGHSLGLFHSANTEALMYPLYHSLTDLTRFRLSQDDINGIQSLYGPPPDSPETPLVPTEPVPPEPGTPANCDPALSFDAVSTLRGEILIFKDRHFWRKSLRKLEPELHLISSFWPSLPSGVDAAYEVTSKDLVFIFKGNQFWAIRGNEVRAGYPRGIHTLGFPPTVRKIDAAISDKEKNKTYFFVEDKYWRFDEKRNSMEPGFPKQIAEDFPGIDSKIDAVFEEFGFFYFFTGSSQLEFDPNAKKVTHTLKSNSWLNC

[8] = biological target: Matrix metalloproteinase-14 (Homo sapiens, UniProt P50281); test: Inhibition of human recombinant MMP14

Q: How did the IC50 [1] turn out when NC(=O)CC1CCCc2sc3nc(C(=O)NCc4ccc5c(c4)NC(=O)CO5)[nH]c(=O)c3c21 (racemic) was run?
A: Its IC50 is over 10 µM.

Q: And the IC50 [2]?
A: The IC50 was over 10 µM.

Q: What about the IC50 [3] of the same molecule?
A: Its IC50 is over 10 µM.

Q: And the IC50 [4]?
A: Its IC50 is over 10 µM.

Q: And the IC50 [5]?
A: The IC50 was under 0.025 µM.

Q: And the IC50 [6]?
A: The IC50 was over 10 µM.

Q: And the IC50 [7]?
A: The IC50 was over 2.5 µM.

Q: And the IC50 [8]?
A: Its IC50 is over 10 µM.
